Results from publication PMC4893628, “Chalcone-based Selective Inhibitors of a C4 Plant Key Enzyme as Novel Potential Herbicides” (Scientific Reports, 2016).
Where two headings read alike, the source gives them in different places.

Legend:
[1] = molecular target: T1, F. pringlei PEPC (Flaveria pringlei, UniProt Q01647); assay: PEPC coupled spectrophotometric assay, C3 PEPC; assay type: biochemical; settings: IC50 F. pringlei PEPC
T1 construct: the full-length ppcA gene of PEPC from F. trinervia (EMBL-Bank X61304) and F. pringlei (EMBL-Bank Z48966) were cloned in pETEV16b; made in house; host or cells: Escherichia coli BL21-Gold(DE3)
T1 sequence (Q01647 1-967): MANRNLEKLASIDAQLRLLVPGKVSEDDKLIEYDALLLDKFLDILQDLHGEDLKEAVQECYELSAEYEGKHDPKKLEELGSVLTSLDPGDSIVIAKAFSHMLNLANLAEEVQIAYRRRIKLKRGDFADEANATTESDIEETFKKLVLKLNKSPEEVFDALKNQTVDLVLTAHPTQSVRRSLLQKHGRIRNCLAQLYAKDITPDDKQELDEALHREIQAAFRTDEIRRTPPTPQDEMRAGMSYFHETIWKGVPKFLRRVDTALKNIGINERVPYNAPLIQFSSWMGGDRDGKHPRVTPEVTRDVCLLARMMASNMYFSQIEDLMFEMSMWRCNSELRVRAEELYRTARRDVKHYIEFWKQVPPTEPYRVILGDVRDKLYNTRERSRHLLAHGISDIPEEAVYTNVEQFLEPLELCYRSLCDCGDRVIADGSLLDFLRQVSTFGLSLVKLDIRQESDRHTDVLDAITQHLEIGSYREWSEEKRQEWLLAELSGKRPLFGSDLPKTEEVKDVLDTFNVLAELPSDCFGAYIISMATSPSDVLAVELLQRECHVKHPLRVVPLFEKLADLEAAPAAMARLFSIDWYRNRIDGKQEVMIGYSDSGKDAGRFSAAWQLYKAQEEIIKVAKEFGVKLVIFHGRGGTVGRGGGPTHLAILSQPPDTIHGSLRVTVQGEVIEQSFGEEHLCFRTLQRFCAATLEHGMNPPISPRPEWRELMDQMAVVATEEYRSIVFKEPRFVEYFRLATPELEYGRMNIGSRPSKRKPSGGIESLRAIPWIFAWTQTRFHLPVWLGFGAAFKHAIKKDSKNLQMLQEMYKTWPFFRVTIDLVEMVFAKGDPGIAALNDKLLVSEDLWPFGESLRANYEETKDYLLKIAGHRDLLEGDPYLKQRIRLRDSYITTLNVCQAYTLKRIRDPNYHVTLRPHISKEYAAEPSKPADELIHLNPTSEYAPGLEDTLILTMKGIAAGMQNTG
Method: The IC50 values of small molecule compounds on F. pringlei and F. trinervia PEPCs were determined using PEPC coupled spectrophotometric assay. The amount of NADH oxidized by NADH-malate dehydrogenase was measured by the decrease in absorbance at 340 nm in a Beckman DU-800 spectrophotometer, thus the value is in proportion to the corresponding substrate conversion of the enzyme. The reaction mixture included the PEPC enzymes (0.05 U), NADH (150 μM), malate dehydrogenase (2 U) and different concentration of compounds in the buffer containing 50 mM HEPES/KOH pH 7.5, 10 mM MgCl2, 10 mM KHCO3 in a final volume of 600 μl at 25 °C. The reactions were started by adding two folds of the Km value of PEP for each enzyme. The data were analyzed using GraFit (Erithacus Software, UK).

[2] = test system: Pseudomonas putida KT2440; assay: Bacterial growth in microscale cultivation, P. putida; assay type: cell-based; settings: for activity at 8 µM / activity at 80 µM / activity at 400 µM / activity at 0.4 µM / activity at 4 µM / activity at 40 µM / activity at 0.3 µM / activity at 3 µM / activity at 30 µM: Pseudomonas putida
Method: The following bacteria were cultivated in the presence of trans-chalcone derived inhibitors: Corynebacterium glutamicum ATCC13032[43], Escherichia coli K-12 MG1655[44], Pseudomonas putida KT2440[45], and Bacillus subtilis 168[46]. The growth of these bacteria was monitored in flower-well plates shaken at 1200 rpm as backscatter at 620 nm (gain 20) using a BioLector® microscale cultivation system (m2p labs, Baesweiler, Germany). For further experimental details please refer to the Supplementary Information.
medium or the appropriate minimal medium and shaken at 140 rpm overnight. For inoculation of
the main culture, cells equivalent to an optical density at 600 nm of 0.5 (C. glutamicum, E. coli,
and P. putida) or 0.25 (B. subtilis) in 800 µL medium were washed and resuspended in fresh
media. Inhibitor substances were dissolved in DMSO and added to the media to a final
Since the least polar trans-chalcone and 2’-hydroxychalcone precipitated in the growth media at
the highest concentrations, the maximal concentration of these compounds was reduced to 400
µM and 100 µM, respectively. The final backscatter at 620 nm, the growth rate (h-1), and the
duration of the lag phase of all cultures were determined in a BioLector microscale cultivation
system in comparison to negative controls supplemented with the solvent DMSO. A longer lag

[3] = complex medium, 0.3 µM, relative to control
[4] = complex medium, 3 µM, relative to control
[5] = complex medium, 30 µM, relative to control
[6] = minimal medium, 0.3 µM, relative to control
[7] = minimal medium, 3 µM, relative to control
[8] = minimal medium, 30 µM, relative to control

For `O=C(/C=C/c1ccccc1)c1ccccc1` [Compound 1, trans-Chalcone], the IC50 [1] was 119 ± 4.6 µM, the activity at 8 µM ([2]; KT2440, complex medium, 8 µM, relative to control, read-out: Final Backscatter) was 95.3% and the activity at 8 µM ([2]; KT2440, complex medium, 8 µM, relative to control, read-out: Growth rate) was 98.4%. It also gave an activity at 80 µM ([2]; KT2440, complex medium, 80 µM, relative to control, read-out: Final Backscatter) of 96.7%, an activity at 80 µM ([2]; KT2440, complex medium, 80 µM, relative to control, read-out: Growth rate) of 100% and an activity at 400 µM ([2]; KT2440, complex medium, 400 µM, relative to control, read-out: Final Backscatter) of 97.3%. It also gave an activity at 400 µM ([2]; KT2440, complex medium, 400 µM, relative to control, read-out: Growth rate) of 103%, an activity at 8 µM ([2]; KT2440, minimal medium, 8 µM, relative to control, read-out: Final Backscatter) of 94.4% and an activity at 8 µM ([2]; KT2440, minimal medium, 8 µM, relative to control, read-out: Growth rate) of 112%. The activity at 80 µM ([2]; KT2440, minimal medium, 80 µM, relative to control, read-out: Final Backscatter) was 94.2%, the activity at 80 µM ([2]; KT2440, minimal medium, 80 µM, relative to control, read-out: Growth rate) was 113% and the activity at 400 µM ([2]; KT2440, minimal medium, 400 µM, relative to control, read-out: Final Backscatter) was 100%. For the same compound, the activity at 400 µM ([2]; KT2440, minimal medium, 400 µM, relative to control, read-out: Growth rate) was 119%, the “Lag Phase” value ([2]; complex medium, 8 µM, relative to control) was 100,6% and the “Lag Phase” value ([2]; complex medium, 80 µM, relative to control) was 101,8%. For the same compound, the “Lag Phase” value ([2]; complex medium, 400 µM, relative to control) was 103,0%, the “Lag Phase” value ([2]; minimal medium, 8 µM, relative to control) was 98,9% and the “Lag Phase” value ([2]; minimal medium, 80 µM, relative to control) was 99,3%. For the same compound, the “Lag Phase” value ([2]; minimal medium, 400 µM, relative to control) was 98,1%.

In the case of `O=C(/C=C/c1ccc(O)c(O)c1)c1ccc(O)cc1O` [Compound 8, 2′,4′,3,4-Tetrahydroxy-chalcone], the activity at 0.4 µM ([2]; KT2440, complex medium, 0.4 µM, relative to control, read-out: Final Backscatter) is reported as 94.7%, the activity at 0.4 µM ([2]; KT2440, complex medium, 0.4 µM, relative to control, read-out: Growth rate) is reported as 90.8% and the activity at 4 µM ([2]; KT2440, complex medium, 4 µM, relative to control, read-out: Final Backscatter) is reported as 97%. The activity at 4 µM ([2]; KT2440, complex medium, 4 µM, relative to control, read-out: Growth rate) was 97.4%, the activity at 40 µM ([2]; KT2440, complex medium, 40 µM, relative to control, read-out: Final Backscatter) was 94.9% and the activity at 40 µM ([2]; KT2440, complex medium, 40 µM, relative to control, read-out: Growth rate) was 95.3%. The activity at 0.4 µM ([2]; KT2440, minimal medium, 0.4 µM, relative to control, read-out: Final Backscatter) was 87%, the activity at 0.4 µM ([2]; KT2440, minimal medium, 0.4 µM, relative to control, read-out: Growth rate) was 83.7% and the activity at 4 µM ([2]; KT2440, minimal medium, 4 µM, relative to control, read-out: Final Backscatter) was 89.8%. The activity at 4 µM ([2]; KT2440, minimal medium, 4 µM, relative to control, read-out: Growth rate) was 89%, the activity at 40 µM ([2]; KT2440, minimal medium, 40 µM, relative to control, read-out: Final Backscatter) was 94.8% and the activity at 40 µM ([2]; KT2440, minimal medium, 40 µM, relative to control, read-out: Growth rate) was 90%. The “Lag Phase” value ([2]; complex medium, 0.4 µM, relative to control) was 92,6%, the “Lag Phase” value ([2]; complex medium, 4 µM, relative to control) was 93,2% and the “Lag Phase” value ([2]; complex medium, 40 µM, relative to control) was 96,3%. For the same compound, the “Lag Phase” value ([2]; minimal medium, 0.4 µM, relative to control) was 99,6%, the “Lag Phase” value ([2]; minimal medium, 4 µM, relative to control) was 99,6% and the “Lag Phase” value ([2]; minimal medium, 40 µM, relative to control) was 98,5%.

Work on `O=C(/C=C/c1cc(O)c(O)c(O)c1)c1ccc(O)cc1O` [Compound 9, 2′,4′,3,4,5-Pentahydroxychalcone] yielded an activity at 0.3 µM ([2]; KT2440, complex medium, 0.3 µM, relative to control, read-out: Final Backscatter) of 94.7%, an activity at 0.3 µM ([2]; KT2440, complex medium, 0.3 µM, relative to control, read-out: Growth rate) of 99.4% and an activity at 3 µM ([2]; KT2440, complex medium, 3 µM, relative to control, read-out: Final Backscatter) of 96.9%. For the same compound, the activity at 3 µM ([2]; KT2440, complex medium, 3 µM, relative to control, read-out: Growth rate) was 101%, the activity at 30 µM ([2]; KT2440, complex medium, 30 µM, relative to control, read-out: Final Backscatter) was 93% and the activity at 30 µM ([2]; KT2440, complex medium, 30 µM, relative to control, read-out: Growth rate) was 102%. For the same compound, the activity at 0.3 µM ([2]; KT2440, minimal medium, 0.3 µM, relative to control, read-out: Final Backscatter) was 93.1%, the activity at 0.3 µM ([2]; KT2440, minimal medium, 0.3 µM, relative to control, read-out: Growth rate) was 109% and the activity at 3 µM ([2]; KT2440, minimal medium, 3 µM, relative to control, read-out: Final Backscatter) was 96.5%. For the same compound, the activity at 3 µM ([2]; KT2440, minimal medium, 3 µM, relative to control, read-out: Growth rate) was 108%, the activity at 30 µM ([2]; KT2440, minimal medium, 30 µM, relative to control, read-out: Final Backscatter) was 98.3% and the activity at 30 µM ([2]; KT2440, minimal medium, 30 µM, relative to control, read-out: Growth rate) was 108%. For the same compound, the “Lag Phase” value [2, 3] was 101,2%, the “Lag Phase” value [2, 4] was 102,4% and the “Lag Phase” value [2, 5] was 99,4%. For the same compound, the “Lag Phase” value [2, 6] was 99,0%, the “Lag Phase” value [2, 7] was 99,3% and the “Lag Phase” value [2, 8] was 99,7%.

`O=C(/C=C/c1ccccc1)c1ccc(O)c(O)c1O` [Compound 10, 2′,3′,4′-Trihydroxychalcone] showed an activity at 0.3 µM ([2]; KT2440, read-out: Final Backscatter, complex medium, 0.3 µM, relative to control) of 103%, an activity at 3 µM ([2]; KT2440, read-out: Final Backscatter, complex medium, 3 µM, relative to control) of 102% and an activity at 30 µM ([2]; KT2440, read-out: Final Backscatter, complex medium, 30 µM, relative to control) of 105%. The activity at 0.3 µM ([2]; KT2440, read-out: Final Backscatter, minimal medium, 0.3 µM, relative to control) was 101%, the activity at 3 µM ([2]; KT2440, read-out: Final Backscatter, minimal medium, 3 µM, relative to control) was 101% and the activity at 30 µM ([2]; KT2440, read-out: Final Backscatter, minimal medium, 30 µM, relative to control) was 103%. The activity at 0.3 µM ([2]; KT2440, read-out: Growth rate, complex medium, 0.3 µM, relative to control) was 114%, the activity at 3 µM ([2]; KT2440, read-out: Growth rate, complex medium, 3 µM, relative to control) was 103% and the activity at 30 µM ([2]; KT2440, read-out: Growth rate, complex medium, 30 µM, relative to control) was 105%. It also gave an activity at 0.3 µM ([2]; KT2440, read-out: Growth rate, minimal medium, 0.3 µM, relative to control) of 94.8%, an activity at 3 µM ([2]; KT2440, read-out: Growth rate, minimal medium, 3 µM, relative to control) of 96% and an activity at 30 µM ([2]; KT2440, read-out: Growth rate, minimal medium, 30 µM, relative to control) of 91.3%. For the same compound, the “Lag Phase” value [2, 3] was 103,9%, the “Lag Phase” value [2, 4] was 100,9% and the “Lag Phase” value [2, 5] was 107,3%. For the same compound, the “Lag Phase” value [2, 6] was 100,0%, the “Lag Phase” value [2, 7] was 101,5% and the “Lag Phase” value [2, 8] was 99,2%.
